Among the data in paper PMC4730408, “Genistein and Glyceollin Effects on ABCC2 (MRP2) and ABCG2 (BCRP) in Caco-2 Cells” (International Journal of Environmental Research and Public …, 2015) are EC50 values, retold here.

Structures are written as SMILES.

In this test the target is MRP2 (ABCC2, multidrug resistance protein 2) (Homo sapiens, UniProt Q92887). As to the kind of experiment: calcein retention (calcein-AM) in Caco-2 cells; CDF transport across Caco-2 monolayers. The test is classed as cell-based.
MRP2 (ABCC2, multidrug resistance protein 2), sequence (Q92887 whole entry): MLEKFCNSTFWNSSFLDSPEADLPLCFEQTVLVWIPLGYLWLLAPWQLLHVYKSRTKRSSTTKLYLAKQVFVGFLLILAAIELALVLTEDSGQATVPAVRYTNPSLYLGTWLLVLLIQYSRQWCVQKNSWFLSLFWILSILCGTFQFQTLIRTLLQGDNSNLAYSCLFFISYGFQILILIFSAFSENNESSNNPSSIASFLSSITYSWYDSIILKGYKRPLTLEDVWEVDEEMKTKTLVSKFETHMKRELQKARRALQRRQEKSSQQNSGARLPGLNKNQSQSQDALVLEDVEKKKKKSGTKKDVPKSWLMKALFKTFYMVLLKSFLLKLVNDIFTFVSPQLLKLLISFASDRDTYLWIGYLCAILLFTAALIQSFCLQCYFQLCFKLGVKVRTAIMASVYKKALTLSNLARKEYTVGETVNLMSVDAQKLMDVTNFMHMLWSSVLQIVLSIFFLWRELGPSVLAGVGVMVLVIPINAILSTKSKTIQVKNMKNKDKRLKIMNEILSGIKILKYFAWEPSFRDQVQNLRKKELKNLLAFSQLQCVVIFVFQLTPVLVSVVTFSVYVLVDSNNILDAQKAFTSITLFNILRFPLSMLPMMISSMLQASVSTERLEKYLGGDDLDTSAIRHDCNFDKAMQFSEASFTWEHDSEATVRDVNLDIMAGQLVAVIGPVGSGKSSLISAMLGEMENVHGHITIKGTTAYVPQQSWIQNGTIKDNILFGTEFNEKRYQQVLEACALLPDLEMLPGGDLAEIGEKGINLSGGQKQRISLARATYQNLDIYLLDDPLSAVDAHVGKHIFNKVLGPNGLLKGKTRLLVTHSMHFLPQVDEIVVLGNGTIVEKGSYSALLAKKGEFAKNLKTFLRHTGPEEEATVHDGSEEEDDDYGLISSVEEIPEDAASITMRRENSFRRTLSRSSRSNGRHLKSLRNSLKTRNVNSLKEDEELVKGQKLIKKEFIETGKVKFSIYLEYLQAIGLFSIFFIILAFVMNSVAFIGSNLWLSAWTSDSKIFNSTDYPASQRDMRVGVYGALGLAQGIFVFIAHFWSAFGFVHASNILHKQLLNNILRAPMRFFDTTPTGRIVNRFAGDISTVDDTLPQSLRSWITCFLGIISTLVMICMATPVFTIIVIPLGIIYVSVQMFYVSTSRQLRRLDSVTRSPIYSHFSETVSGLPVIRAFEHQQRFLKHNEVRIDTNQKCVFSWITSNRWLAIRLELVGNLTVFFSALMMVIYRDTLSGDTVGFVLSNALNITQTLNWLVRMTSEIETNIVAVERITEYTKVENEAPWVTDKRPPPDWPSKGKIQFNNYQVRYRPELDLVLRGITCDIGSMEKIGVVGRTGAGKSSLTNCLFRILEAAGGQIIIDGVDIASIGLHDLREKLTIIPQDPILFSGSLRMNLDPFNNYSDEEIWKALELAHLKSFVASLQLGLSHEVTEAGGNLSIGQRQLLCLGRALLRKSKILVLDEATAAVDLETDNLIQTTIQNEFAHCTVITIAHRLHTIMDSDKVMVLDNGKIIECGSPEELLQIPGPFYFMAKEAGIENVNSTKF

As a reminder, the EC50 is the midpoint of the concentration-response curve. As to `CN(C)C(=O)CCSC(SCCC(=O)O)c1cccc(/C=C/c2ccc3ccc(Cl)cc3n2)c1` (stereo not shown) [MK-571], the EC50 was 20 µM.
